For one data set, the system named is YAP. Briefly: Exposure of LSCs to LATS inhibitors, intracellular YAP distribution by immunohistochemistry. To be noted: 10 micromolar, 24 hours, compared with DMSO control; data not shown. It is filed as cell-based, human. The method, then: Research-consented cadaveric human corneas were obtained from eye banks. Limbal rims were dissected and partially dissociated in a 1.2 mg/ml dispase solution for 2 hours at 37° C. followed by 10 minutes in TrypLE (Life Technologies). Pieces of limbal crypts were then carefully cut out of the partially dissociated limbal rims and rinsed by centrifugation). Cells obtained in this manner were used in the Examples below.
Cells were cultured under these conditions for 24 hours at 37° C. in 5% CO2.
To measure the effect of the LATS inhibitors on the downstream target YAP, intracellular YAP distribution was analyzed by immunohistochemistry. Cell cultures were fixed with 4% PFA for 20 minutes, permeabilized and blocked in a blocking solution of 0.3% Triton X-100 (Sigma-Aldrich) and 3% donkey serum in PBS for 30 minutes. Cells were then labeled with primary antibody in the blocking solution for 12 hours at 4° C. Primary antibody used was anti-YAP from Santa Cruz Biotechnology. Samples were washed in PBS three times and donkey-raised secondary antibody Alexa Fluor 488 (Molecular Probes) at 1:500 dilution were applied for 30 minutes at room temperature. […] Fluorescence was observed using a Zeiss LSM 880 confocal microscope.

Another data set relates to phospho-YAP (ser127). Briefly: Exposure of LSCs to LATS inhibitors, YAP phosphorylation by western blot. To be noted: 10 micromolar, 1 hour, DMSO as negative control. In kind it is cell-based, human. The method, then:
The medium was then replaced by fresh limbal epithelium cell culture medium (DMEM F12 supplemented with 10% human serum and 1.3 mM calcium chloride) supplemented with LATS inhibitor compound example no. […] Cells were cultured under these conditions for 1 hour at 37° C. in 5% CO2.
To measure the effect of the LATS inhibitors on the downstream target YAP, the YAP phosphorylation levels were measured by western blot as follows. The cell pellets were obtained by trypsin dissociation and centrifugation and washed with PBS. The pellets were lysed with 30 microlitres of RIPA lysis buffer containing protease inhibitor cocktail (Life Technologies) for 30 minutes, with vortexing every 10 minutes. The cell debris were then pelleted at 4° C. for 15 minutes at 14 k rpm and the protein lysate was collected. Protein concentration was quantified using a micro BCA kit (Pierce). Fifteen micrograms of total protein was loaded in each well of 4-20% TGX gels (BioRad) and Western blotting was performed according to the manufacturer's instructions. […] Membranes were stained with HRP-conjugated secondary antibodies, rinsed and imaged using a ChemiDoc system (Biorad) according to the manufacturer's instructions.
Background: Immunoblotting shows a protein as a band on a membrane.

The test system of the next data set is limbal stem cells. In words: Human limbal stem cell population expansion, immunohistochemical observation of p63alpha phenotype. In kind it is cell-based. To be noted: for colony formation and p63alpha expression: 10 micromolar, 6 days after isolation without passaging, DMSO as negative control. The method, then:
Cells were first cultured at 37° C. in 5% CO2 for 6 days after isolation without passaging (FIGS. 2A, 2B and 2C).
To evaluate the ability of the compounds to enable LSC expansion after two passages, LSCs were passaged and cultured for two weeks in the presence of compound example 3 to enable expansion (FIG. 2D). Limbal stem cells (LSCs) were passaged by treating cultures with Accutase for 10 minutes at 37° C., rinsing the cell suspension by centrifugation and plating cells in fresh LSC culture medium supplemented with LATS inhibitor compound example 3.
In order to observe that the expanded cell population expressed p63alpha, this was measured by immunohistochemistry as follows. Cell cultures were fixed with 4% PFA for 20 minutes, permeabilized and blocked in a blocking solution of 0.3% Triton X-100 (Sigma-Aldrich) and 3% donkey serum in PBS for 30 minutes. Cells were then labeled with primary antibody in the blocking solution for 12 hours at 4° C. Primary antibody used was p63alpha from Cell Signalling. Samples were washed in PBS three times and donkey-raised secondary antibody Alexa Fluor 488 (Molecular Probes) at 1:500 dilution were applied for 30 minutes at room temperature. Cells were counter-stained with a human nuclear antigen antibody (Millipore) at a 1:500 dilution in order to label all cells in the culture and confirm their human identity. […] Fluorescence was observed using a Zeiss LSM 880 confocal microscope.

Data set [1] has as its system beta-2-microglobulin gene. Briefly: CRISPR/Cas9-mediated deletion of B2M in LSCs by nucleofection, FACS analysis. It is filed as cell-based, human. To be noted: Cas9 protein (SEQ ID NO: 107):sgRNA 1:10 nucleofection, LSCs passage 0, FACS. The method, then: The sgRNA ID SEQ NO 120 was tested for the ability to reduce or eliminate expression of B2M in LSCs using a nucleofection approach as follows.
LSCs at passage 0 were trypsinized with TryLE™Express Enzym (ThermoFisher, Cat #12605010) for 15 min in 5% CO2 at 37° C. After scraping the cells, the reaction was stopped by using cell culture medium containing 10% Serum and transferred to a falcon tube. After counting cells using Vi-cell 200′000 cells were prepared per reaction by transferring 200′000 cells in single tubes and centrifuged at 1000 rpm for 5 min.
The supernatant was aspirated using manually pipetting to avoid cell loss and the cells were resuspended in the Stem cell nucleofector solution II (Lonza, Cat #VPH-5022). Resuspend cells in nucleofector solution immediately before adding the Cas9 protein:sgRNA mixture. A stock of 100 μM (3.23 μg/μl) was prepared resuspending 5.1 nanomoles of single-guideRNA (sgRNA) in 51 μl 10 mM Tris buffer pH7.4. […]
In order to prevent cells sticking to the wall, collection tubes were filled with FACS buffer for 30 minutes before the sort and aspirated before adding the collection medium. […] FACS data were analyzed using BD FACSDiva software and FlowJo software.

For a further data set, the system named is CD8+ T-cells. Briefly: LSC/T-cell reaction assay (gene edited LSCs co-cultured with CD8+ T-cells). To be noted: B2M/HLA-Class I negative edited LSCs co-cultured 10 days with CD8+ T-cells from 4 donors. In kind it is cell-based, human. The procedure:
An LSC/T-cell assay was performed in flat bottom 96well synthemax coated plates in duplicates and incubated in 5% CO2 at 37° C. for 10 days. RPMI-1640 supplemented with HEPES (100 μM), non-essential aas (10×), sodium pyruvate (10 mM), 2-Mercapthoethanol (10×), 10% FBS and 1% Penicillin-Streptomycin (Gibco by Life Technologies) was used as medium for co-culture. Alternatively, RPMI-1640 supplemented with HEPES (10 mM), non-essential aas (1×), sodium pyruvate (1 mM), 2-Mercapthoethanol (1×), 10% FBS and 1% Penicillin-Streptomycin (Gibco by Life Technologies) was used as medium for co-culture.
One day before co-culture, LSCs (stimulator cells) were passed and cultured to a confluency of around 70% (30′000-50′000 cells) and cultured with LSC medium including compound. On day two, peripheral blood mononuclear cells (PBMC) were separated using EDTA blood with the Ficoll-Paque method (GE Healthcare Life Sciences, cat #17-1440-03). […]
After 10 days, CD8+ cells were transferred to a U-bottomed 96-well plate and washed 3 times using autoMAC rinsing solution (Miltenyi Biotec, Cat #130-091-222) including MACS BSA stock solution (Miltenyi Biotec, Cat #130-091-376). Cells were measured on a BD LSRFortessa X-20. FACS data were analyzed using BD FACSDiva software and FlowJo software.

Data set [2] has as its system genomic DNA purified from male human peripheral blood mononuclear cells. In words: Biochemical method for potential off-target genomic sites cleaved by Cas9 and B2M guides. To be noted: guide concentration of 64 nM. From the text: A biochemical method (See, e.g., Cameron et al., Nature Methods. 6, 600-606; 2017) was used to determine potential off-target genomic sites cleaved by Cas9 and selected B2M guides.

In data set [3] the test system is potential off-target sites. In words: Off-target activity detection in limbal stem cells by targeted PCR and NGS. In kind it is cell-based, human. As to conditions: edited LSCs vs non-edited PBMCs; positive sites of sequenced loci. The method, then: Potential CRISPR/Cas9-mediated cutting sites identified above were evaluated using targeted PCR and NGS in genome-edited expanded LSCs.
Selected sgRNAs (SEQ ID NO: 120, 162, 166, 167, 171, and 175) were further analyzed by amplicon sequencing in edited and non-edited cells. Primers flanking the potential off-target sites for each guide were used to detect indels by NGS analysis in edited LSCs and non-edited peripheral blood mononuclear cells. Sites that had either (1) a difference in mean indel percentage between edited and unedited cells greater than 0.5%; or (2) a p value less than 0.05 between edited and unedited indel were further analyzed. NGS sequence reads for such sites were assessed for characteristic indel patterns near the putative Cas9 cut site.

For `CC(C)(O)CC(C)(C)Nc1nc(-c2ccncc2)nc2cnccc12` [Example 3, 2,4-dimethyl-4-{[2-(pyridin-4-yl)pyrido[3,4-d]pyrimidin-4-yl]amino}pentan-2-ol], in the data set on YAP, the “YAP immunostaining in the nucleus of LSCs” value is reported as “stronger”. For the same molecule, the “YAP phosphorylation levels in human LSCs (Western blot)” value in the data set on phospho-YAP (ser127) is on record as “caused a reduction in YAP phosphorylation levels”; with phospho-YAP (ser127) (listed as ex. 3) it was “induce YAP dephosphorylation”. Also, in the data set on limbal stem cells, the “colony formation and p63alpha expression” value is “the cells formed colonies and expressed p63alpha”. For the same molecule, in the data set with limbal stem cells (passaged and cultured for two weeks in the presence of compound), the “cell population expansion after passaging, p63alpha expression” value was “enabled cell population expansion and the formation of confluent cultures expressing p63alpha”.

As to `Cc1n[nH]cc1-c1nc(NC2(C)CC2)c2ccncc2n1` [Example 4, 2-(3-methyl-1H-pyrazol-4-yl)-N-(1-methylcyclopropyl)pyrido[3,4-d]pyrimidin-4-amine], in the data set with YAP, the “YAP immunostaining in the nucleus of LSCs” value is recorded as “stronger”. Further, the results for the “YAP phosphorylation levels in human LSCs (Western blot)” value in the data set on phospho-YAP (ser127) (listed as ex. 4) and with phospho-YAP (ser127) (listed as example no. 4) were “induce YAP dephosphorylation” and “caused a reduction in YAP phosphorylation levels”, respectively. Moreover, the “colony formation and p63alpha expression” value in the data set with limbal stem cells was “the cells formed colonies and expressed p63alpha”.

B1: 1-CR004366: gRNA targeting B2M (Dharmacon); targeting domain GAGUAGCGCGAGCACAGCUA (SEQ ID NO: 108); sgRNA SEQ ID NO: 120 (nucleic acid)
guide: GAGUAGCGCGAGCACAGCUAGUUUUAGAGCUAGAAAUAGCAAGUUAAAAUAAGGCUAGUCCGUUAUCAACUUGAAAAAGUGGCACCGAGUCGGUGCUUUU
modifications: listed as RNA, chemistry not given here
Turning to B1, the “LSCs with deletion of B2M and elimination of HLA A, B and C (cells not expressing B2M)” value in data set [1] is reported as “about 70%”. In addition, in the data set with CD8+ T-cells, the T-cell immunoresponse result was “almost completely eliminated”. Besides, the “off-target Site_Count” value in data set [2] was found to be 69. Moreover, the “Number of sites positive for off-target activity in LSCs” value in data set [3] is “zero”.

These data come from patent US20200131474A1, “METHODS AND COMPOSITIONS FOR OCULAR CELL THERAPY” (Novartis AG, priority 2018, published 2020).
